ChEMBL document CHEMBL1201862, “PubChem BioAssay data set” (2004)
Calls of active or inactive are those of the source.

Key:
T-cell = assay: loss of vesicle association with mouse CD8+ T cells – mouse 2C CD8+ T cells, flow cytometry, dose response (AID 485284); assay type: functional
BJ [1] = assay: BJ-TERT fibroblast viability loss – cell-based, RAS-independent, luminescence, dose response (AID 1933); assay type: functional; conditions: Homo sapiens
[2] = target: T1, Heat shock factor protein 1 (Mus musculus, UniProt P38532); assay: decrease of HSF1-responsive luciferase luminescence – cell-based, NIH3T3, dose retest, confirmation (AID 2382); assay type: functional;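 further: NIH3T3 fibroblasts with HSF1-driven luciferase reporter stressed by proteasome inhibitor MG132; luminescence from HSF1-driven luciferase expression after 8 hours of MG132 stress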
T1 sequence (P38532 whole entry): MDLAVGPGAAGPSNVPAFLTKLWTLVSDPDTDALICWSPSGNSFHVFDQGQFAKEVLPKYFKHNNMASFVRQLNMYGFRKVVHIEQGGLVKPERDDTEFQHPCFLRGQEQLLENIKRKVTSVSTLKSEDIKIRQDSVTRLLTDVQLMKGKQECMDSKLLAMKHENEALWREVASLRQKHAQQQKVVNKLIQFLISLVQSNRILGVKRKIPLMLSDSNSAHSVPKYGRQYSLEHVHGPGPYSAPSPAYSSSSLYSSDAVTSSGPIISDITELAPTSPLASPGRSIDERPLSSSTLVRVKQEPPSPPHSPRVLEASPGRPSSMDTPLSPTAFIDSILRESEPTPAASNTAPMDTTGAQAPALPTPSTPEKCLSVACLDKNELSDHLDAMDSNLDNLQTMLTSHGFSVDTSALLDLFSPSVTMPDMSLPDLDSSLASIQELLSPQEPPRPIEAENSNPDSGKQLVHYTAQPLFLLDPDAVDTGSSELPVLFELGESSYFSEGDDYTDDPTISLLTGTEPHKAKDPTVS

BJ [3] = assay: cells; assay type: functional, cell-based; conditions: Homo sapiens
[4] = microbe, parasite or virus in culture; assay type: functional; conditions: Mycobacterium tuberculosis
BJ [5] = assay: BJ-TERT-LT-ST fibroblast viability loss – cell-based, RAS-independent, luminescence, dose response (AID 1935); assay type: functional; conditions: Homo sapiens;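 further: BJ fibroblasts immortalized with TERT plus LT and ST oncogenes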
[6] = DRD fibroblast viability loss – cell-based, non-viral oncogenic, luminescence, dose response (AID 1934); assay type: functional; conditions: Homo sapiens
[7] = Intein inhibitors as potential Tuberculosis drugs, a cytotoxicity screen. [Related pubchem assays (depositor defined):AID2221, AID2223, AID434968, AID435010, AID449749, AID449750, AID489010]; assay type: functional
[8] = HEK-293T cell viability reduction – luminescence, B-cell screen hits, cytotoxicity control for BCR NF-kB inhibitor project, dose response (AID 489021); assay type: functional, cell-based;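 further: HEK-293T cells carrying an NF-kB luciferase reporter; cells exposed to compound for about 14 hours before viability readout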
[9] = target: T2, Replicative DNA helicase DnaB (Mycobacterium tuberculosis, UniProt P9WMR3); assay: DnaB intein splicing inhibitors, dose response, biochemical, cell-free fluorescence (AID 449749); assay type: functional
T2 sequence (P9WMR3 whole entry): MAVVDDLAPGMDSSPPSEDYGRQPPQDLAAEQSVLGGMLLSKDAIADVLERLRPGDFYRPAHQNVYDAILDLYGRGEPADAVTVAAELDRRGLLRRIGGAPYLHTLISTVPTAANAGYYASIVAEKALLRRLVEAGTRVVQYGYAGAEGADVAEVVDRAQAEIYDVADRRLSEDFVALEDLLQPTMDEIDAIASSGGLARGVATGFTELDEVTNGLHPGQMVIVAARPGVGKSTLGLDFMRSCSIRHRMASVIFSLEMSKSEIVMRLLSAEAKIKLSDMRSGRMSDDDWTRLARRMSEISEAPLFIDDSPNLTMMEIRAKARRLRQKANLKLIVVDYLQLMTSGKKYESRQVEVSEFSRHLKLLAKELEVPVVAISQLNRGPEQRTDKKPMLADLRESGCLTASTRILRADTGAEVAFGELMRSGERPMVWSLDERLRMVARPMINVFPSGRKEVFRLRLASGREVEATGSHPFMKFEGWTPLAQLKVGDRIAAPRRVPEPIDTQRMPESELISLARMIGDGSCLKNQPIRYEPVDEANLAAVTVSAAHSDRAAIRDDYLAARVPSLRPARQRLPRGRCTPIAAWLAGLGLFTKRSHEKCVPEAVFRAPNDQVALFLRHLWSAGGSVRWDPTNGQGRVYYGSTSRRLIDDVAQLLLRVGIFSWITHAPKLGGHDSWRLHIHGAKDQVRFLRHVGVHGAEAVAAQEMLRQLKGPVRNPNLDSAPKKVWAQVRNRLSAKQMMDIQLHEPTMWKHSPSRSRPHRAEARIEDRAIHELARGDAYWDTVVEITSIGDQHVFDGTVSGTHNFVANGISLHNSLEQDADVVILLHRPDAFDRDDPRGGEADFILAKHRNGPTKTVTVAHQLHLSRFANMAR

BJ [10] = assay: growth inhibition of engineered Ras-driven BJ cells – cell-based, alamar blue fluorescence, cherrypicked samples, dose response (AID 2631); assay type: functional; conditions: Homo sapiens;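 further: confirmatory dose-response assay in RAS-dependent BJ fibroblasts engineered with TERT, LT and ST, with cytotoxicity read by fluorescence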
Protein RecA = target: T3, Protein RecA (Mycobacterium tuberculosis, UniProt P9WHJ3); assay: Fluorescence Cell-Free Homogeneous Dose Retest to Identify Inhibitors of RecA-Intein Splicing Activity. [Related pubchem assays (depositor defined):AID2097, AID2223, AID489010, AID492950]; assay type: functional
T3 sequence (P9WHJ3 whole entry): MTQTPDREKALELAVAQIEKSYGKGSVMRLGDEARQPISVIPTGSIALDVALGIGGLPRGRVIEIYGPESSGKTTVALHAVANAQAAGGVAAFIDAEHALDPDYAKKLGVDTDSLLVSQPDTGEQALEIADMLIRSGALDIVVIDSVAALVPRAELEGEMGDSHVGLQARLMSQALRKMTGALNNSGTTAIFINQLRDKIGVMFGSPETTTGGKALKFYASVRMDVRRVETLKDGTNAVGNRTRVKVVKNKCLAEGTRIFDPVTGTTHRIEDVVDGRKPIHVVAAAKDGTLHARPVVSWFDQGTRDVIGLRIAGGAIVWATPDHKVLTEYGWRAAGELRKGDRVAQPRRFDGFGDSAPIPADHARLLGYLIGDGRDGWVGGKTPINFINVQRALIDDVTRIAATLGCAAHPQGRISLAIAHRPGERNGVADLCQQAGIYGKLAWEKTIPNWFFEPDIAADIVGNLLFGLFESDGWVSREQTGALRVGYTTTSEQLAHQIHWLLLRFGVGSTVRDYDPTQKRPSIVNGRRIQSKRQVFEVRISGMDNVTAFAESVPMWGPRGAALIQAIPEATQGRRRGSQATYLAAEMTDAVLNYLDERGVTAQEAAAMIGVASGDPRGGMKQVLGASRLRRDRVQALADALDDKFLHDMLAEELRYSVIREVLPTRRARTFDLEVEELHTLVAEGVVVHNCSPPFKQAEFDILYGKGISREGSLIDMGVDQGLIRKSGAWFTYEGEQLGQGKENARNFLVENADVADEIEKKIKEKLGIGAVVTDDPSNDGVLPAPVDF

Paired box protein Pax-8 = Paired box protein Pax-8 (Homo sapiens, UniProt Q06710); assay: PAX8 transcriptional activity inhibition in RMG-I – RMG-I cells, luciferase, cherry-pick, dose response (AID 687027); assay type: functional, cell-based;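 further: luciferase reporter driven by Pax8 target thyroperoxidase promoter measured by SteadyGlo luminescence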
Chain of Paired box protein Pax-8 (Q06710 whole entry): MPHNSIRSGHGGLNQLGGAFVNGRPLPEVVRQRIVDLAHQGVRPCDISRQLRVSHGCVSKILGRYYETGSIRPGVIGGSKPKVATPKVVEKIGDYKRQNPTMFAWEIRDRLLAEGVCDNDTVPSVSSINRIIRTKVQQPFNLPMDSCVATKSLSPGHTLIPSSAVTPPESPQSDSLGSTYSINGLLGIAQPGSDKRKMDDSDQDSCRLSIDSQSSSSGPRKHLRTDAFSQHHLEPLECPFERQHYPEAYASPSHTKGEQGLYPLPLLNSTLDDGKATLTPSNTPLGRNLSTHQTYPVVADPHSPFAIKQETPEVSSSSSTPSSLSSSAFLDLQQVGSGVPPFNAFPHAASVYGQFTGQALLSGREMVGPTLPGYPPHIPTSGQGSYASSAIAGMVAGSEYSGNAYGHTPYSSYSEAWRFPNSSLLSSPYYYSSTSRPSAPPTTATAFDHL

[11] = general cell-killing toxicity readout – plate reader, dry powder samples, cytotoxicity control for PAX8 inhibitor project, dose response (AID 743021); assay type: functional, cell-based
[12] = target: T4, Runt-related transcription factor 1/Core-binding factor subunit beta (Homo sapiens, UniProt Q01196+Q13951); assay: disruptors of Runt domain/CBFb-SMMHC interaction – biochemical, FRET, Cerulean-Runt, Venus-CBFb-SMMHC, uHTS, […] (AID 1434); assay type: protein assay
T4 sequence (Q01196 whole entry, the tested form may be a part): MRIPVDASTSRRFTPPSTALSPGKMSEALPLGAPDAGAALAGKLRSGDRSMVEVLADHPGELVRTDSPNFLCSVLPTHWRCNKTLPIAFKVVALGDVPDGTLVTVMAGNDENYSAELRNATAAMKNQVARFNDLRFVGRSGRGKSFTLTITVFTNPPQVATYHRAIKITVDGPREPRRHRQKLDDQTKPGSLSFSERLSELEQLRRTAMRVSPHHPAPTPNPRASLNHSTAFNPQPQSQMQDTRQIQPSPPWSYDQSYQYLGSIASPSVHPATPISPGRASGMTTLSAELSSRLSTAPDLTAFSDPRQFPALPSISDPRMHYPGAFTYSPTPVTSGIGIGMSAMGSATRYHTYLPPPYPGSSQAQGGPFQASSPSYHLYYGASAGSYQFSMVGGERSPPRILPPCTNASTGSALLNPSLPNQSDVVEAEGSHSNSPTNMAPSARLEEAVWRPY
T4 sequence (Q13951 whole entry, the tested form may be a part): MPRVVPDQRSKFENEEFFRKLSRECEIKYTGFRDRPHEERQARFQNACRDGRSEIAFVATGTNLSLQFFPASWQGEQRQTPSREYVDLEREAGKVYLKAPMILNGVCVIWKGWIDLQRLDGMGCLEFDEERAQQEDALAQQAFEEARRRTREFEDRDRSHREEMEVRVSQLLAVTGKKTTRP

[13] = target: T4, Runt-related transcription factor 1/Core-binding factor subunit beta; assay: Runt domain/CBFb-SMMHC interaction disruptors – biochemical, TR-FRET (AID 1438); assay type: protein assay
Hexokinase HKDC1 = target: T5, Hexokinase HKDC1 (Homo sapiens, UniProt Q2TB90); assay: activation of HKDC1 glucose phosphorylation – biochemical, W721R variant, dose response (AID 504730); assay type: functional
T5 sequence (Q2TB90 whole entry): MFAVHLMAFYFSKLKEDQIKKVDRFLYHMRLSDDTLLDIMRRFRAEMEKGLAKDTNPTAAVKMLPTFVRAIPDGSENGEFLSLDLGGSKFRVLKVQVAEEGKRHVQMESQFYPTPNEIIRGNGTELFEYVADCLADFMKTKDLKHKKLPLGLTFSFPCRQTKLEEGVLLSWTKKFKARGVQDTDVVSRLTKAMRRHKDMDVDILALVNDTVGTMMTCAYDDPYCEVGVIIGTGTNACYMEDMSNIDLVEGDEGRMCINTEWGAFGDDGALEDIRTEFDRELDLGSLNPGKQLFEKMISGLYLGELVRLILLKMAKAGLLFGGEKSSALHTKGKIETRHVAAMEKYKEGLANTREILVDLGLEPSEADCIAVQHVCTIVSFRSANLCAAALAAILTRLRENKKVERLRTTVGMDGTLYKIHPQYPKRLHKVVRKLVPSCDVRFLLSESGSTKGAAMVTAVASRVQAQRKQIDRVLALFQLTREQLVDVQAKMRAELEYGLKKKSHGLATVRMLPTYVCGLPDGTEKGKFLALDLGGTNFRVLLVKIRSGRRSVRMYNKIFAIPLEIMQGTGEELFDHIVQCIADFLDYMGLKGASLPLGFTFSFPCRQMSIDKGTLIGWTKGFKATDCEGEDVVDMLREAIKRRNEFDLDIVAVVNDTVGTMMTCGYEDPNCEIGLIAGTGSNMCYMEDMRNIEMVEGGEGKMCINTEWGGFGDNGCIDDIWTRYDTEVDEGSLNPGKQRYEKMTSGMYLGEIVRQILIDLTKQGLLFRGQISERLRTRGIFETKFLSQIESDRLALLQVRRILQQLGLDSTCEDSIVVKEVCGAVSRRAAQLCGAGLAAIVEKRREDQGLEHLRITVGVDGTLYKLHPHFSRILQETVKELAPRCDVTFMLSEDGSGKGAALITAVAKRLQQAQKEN

Hexokinase-1 = Hexokinase-1 (Homo sapiens, UniProt P19367); assay: HK1 enzyme activation by HKDC1 hits – biochemical, selectivity assay for HKDC1 activator project, dose response (AID 504762); assay type: functional
Chain of Hexokinase-1 (P19367 whole entry): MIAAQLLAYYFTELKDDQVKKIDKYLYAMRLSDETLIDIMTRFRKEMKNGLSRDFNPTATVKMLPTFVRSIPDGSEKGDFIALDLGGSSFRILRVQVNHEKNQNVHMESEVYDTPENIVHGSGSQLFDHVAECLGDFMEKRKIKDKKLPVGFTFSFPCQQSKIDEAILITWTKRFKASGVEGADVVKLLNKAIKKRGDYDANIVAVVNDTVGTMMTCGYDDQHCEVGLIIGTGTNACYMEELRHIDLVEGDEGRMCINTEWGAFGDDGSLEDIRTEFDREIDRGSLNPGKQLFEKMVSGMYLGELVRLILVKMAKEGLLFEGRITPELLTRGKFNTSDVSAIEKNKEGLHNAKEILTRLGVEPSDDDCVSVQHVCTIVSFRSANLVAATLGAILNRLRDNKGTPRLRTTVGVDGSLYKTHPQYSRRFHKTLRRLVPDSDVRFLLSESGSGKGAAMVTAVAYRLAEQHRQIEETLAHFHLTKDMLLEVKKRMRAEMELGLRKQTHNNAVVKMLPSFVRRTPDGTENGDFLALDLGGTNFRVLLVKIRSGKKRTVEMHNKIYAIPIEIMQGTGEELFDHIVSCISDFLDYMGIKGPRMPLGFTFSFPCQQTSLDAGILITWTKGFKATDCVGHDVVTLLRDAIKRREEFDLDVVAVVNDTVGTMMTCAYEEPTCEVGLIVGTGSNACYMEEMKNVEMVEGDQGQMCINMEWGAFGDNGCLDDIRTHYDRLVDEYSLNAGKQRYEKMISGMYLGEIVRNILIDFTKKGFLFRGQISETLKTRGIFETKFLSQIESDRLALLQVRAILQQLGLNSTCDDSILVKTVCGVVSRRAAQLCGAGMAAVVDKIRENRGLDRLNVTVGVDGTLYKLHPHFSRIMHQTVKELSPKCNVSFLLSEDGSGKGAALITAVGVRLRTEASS

[14] = target: T6, Sphingosine 1-phosphate receptor 4 (Homo sapiens, UniProt O95977); assay: Late-stage fluorescence dose response cell-based assay to identify agonists of the Sphingosine 1-Phosphate Receptor 4 (S1P4): purchased compounds EC50. [Related pubchem assays (depositor defined):AID1509, AID1523, AID1563, AID1686, AID1701, AID1801]; assay type: functional
T6 sequence (O95977 whole entry): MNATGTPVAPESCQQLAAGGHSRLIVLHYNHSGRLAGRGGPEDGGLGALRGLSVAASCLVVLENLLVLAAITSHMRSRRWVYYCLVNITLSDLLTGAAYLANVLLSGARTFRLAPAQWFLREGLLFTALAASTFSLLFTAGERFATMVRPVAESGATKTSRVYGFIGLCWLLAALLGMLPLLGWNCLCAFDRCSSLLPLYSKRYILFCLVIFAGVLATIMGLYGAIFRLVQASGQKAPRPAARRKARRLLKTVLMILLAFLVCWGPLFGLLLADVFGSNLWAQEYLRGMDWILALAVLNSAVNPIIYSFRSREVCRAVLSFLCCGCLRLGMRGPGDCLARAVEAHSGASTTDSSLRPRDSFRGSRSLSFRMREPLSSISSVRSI

[15] = THP-1 cell cytotoxicity, dose response, cytotoxicity control for non-replicating M. tuberculosis project (AID 489025); assay type: functional
[16] = Vero E6 cell cytotoxicity, dose response, cytotoxicity control for non-replicating M. tuberculosis project, secondary assay (AID 492998); assay type: functional, VeroE6; conditions: Vero C1008
[17] = target: T1, Heat shock factor protein 1; assay: enhancement of HSF1-driven luciferase signal – cell-based, NIH3T3, luminescence, dose retest, confirmation (AID 435004); assay type: functional;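 further: stress induced by proteasome inhibitor MG132 added 30 min after compound; luciferase reporter driven by HSF1 response element in NIH3T3 cells; actives raise luminescence as potentiators of the MG132 stress response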
[18] = target: T7, Microphthalmia-associated transcription factor (Homo sapiens, UniProt O75030); assay: reducers of TRPM1 reporter luminescence, concentration series – cell-based, SK-MEL-5, cherry-picked, set 3, MITF inhibitor project, dose response (AID 493073); assay type: functional;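 further: SK-MEL-5 melanoma cells with luciferase driven by the MITF target TRPM1 promoter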
T7 sequence (O75030 whole entry): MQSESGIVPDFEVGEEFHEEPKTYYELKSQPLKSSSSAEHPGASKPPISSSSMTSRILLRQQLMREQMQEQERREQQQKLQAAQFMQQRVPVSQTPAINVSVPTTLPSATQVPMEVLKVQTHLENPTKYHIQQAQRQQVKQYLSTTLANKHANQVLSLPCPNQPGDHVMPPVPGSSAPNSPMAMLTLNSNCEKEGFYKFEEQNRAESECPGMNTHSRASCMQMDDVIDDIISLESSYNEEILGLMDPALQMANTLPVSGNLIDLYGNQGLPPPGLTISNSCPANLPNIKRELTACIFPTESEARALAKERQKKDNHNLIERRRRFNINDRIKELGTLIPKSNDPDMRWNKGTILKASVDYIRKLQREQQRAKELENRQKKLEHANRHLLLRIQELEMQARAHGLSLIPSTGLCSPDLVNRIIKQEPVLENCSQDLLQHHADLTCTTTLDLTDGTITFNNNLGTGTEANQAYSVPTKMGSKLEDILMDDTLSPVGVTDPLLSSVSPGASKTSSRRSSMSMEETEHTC

cells = assay type: functional

Cc1ccc(S(=O)(=O)N2CCC(NC(=O)c3ccccc3)CC2)cc1
active: EC50 (T-cell) 7.83 µM

C=CCOc1ccccc1CN(C(=O)CCl)c1ccc2c(c1)OCO2
inactive: IC50 [8] 62.1 µM | EC50 (BJ [10]) > 66.7 µM
active: EC50 [2] 4.88 µM | EC50 (BJ [3]) 4.58 µM | CC50 [4] 1.68 µM | EC50 [6] 5.04 µM | CC50 [7] 2.07 µM | AC50 [9] 2.37 µM | EC50 (Protein RecA) 0.481 µM | AC50 (Paired box protein Pax-8) 5.46 µM | AC50 [11] 9.67 µM
inconclusive: EC50 (BJ [1]) 0.7 µM | EC50 (BJ [5]) 17.3 µM

CCOC(=O)N1CCC(NC(=O)c2ccc3c(c2)N(C)CCS3)CC1
inactive: IC50 [12] > 100 µM | IC50 [13] > 100 µM

COc1ccccc1C1=NN=C(Nc2cccc(S(=O)(=O)N(C)C)c2)SC1
inactive: EC50 (Hexokinase-1) 20.1 µM
active: EC50 (Hexokinase HKDC1) 19.5 µM

Cc1nn(Cc2ccccc2)c(Cl)c1C(=O)OC(C)C(=O)NCc1ccccc1 (configuration not stated)
inactive: EC50 [14] > 50 µM

COC(=O)c1ccc2c(c1O)C(=O)c1ccccc1C2=O
active: CC50 [4] 24.2 µM | CC50 [15] > 40 µM | CC50 [16] > 20 µM | EC50 [17] 3.73 µM | AC50 [18] 1.61 µM | IC50 (cells) 4.52 µM | AC50 [9] 51.4 µM | EC50 (Protein RecA) 0.925 µM
